As usually defined, the inhibition is the share of the control response that was lost under treatment. High values mean a response far below the control, low ones a response near the control.

SMILES strings stand for the structures.

This is an account of results in paper PMC6934184, “Selective DNA-PKcs inhibition extends the therapeutic index of localized radiotherapy and chemotherapy” (The Journal of Clinical Investigation, 2019).

In the test the target is T1, PRKACA (PKA) (Homo sapiens, UniProt P17612).
T1 construct: purchased Thermo Fisher Scientific (Life Technologies) SelectScreen
In words: SelectScreen Z'LYTE. The test is classed as biochemical. In outline: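 NU5455 was profiled across the SelectScreen Broad panel of kinase activity and binding assays. Z'LYTE reactions such as CSF1R ran at apparent Km ATP, while the Adapta CAMK1 assay used ATP listed as 10. Values are given as percent.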

In turn, `CN(C(=O)CN1CCOCC1)c1ccc2sc3c(-c4cccc5c(=O)cc(N6CC7CCC(C6)O7)oc45)cccc3c2c1` [NU5455] had an inhibition at 1 µM of 14%.
